± gives the expanded uncertainty stated by the source.
Experiment: mn = molality of the nth substance listed, in mol/kg
Conditions: 101 kPa, Liquid

CC1(C)S[C@@H]2[C@H](NC(=O)Cc3ccccc3)C(=O)N2[C@H]1C(=O)[O-].[K+] + O
mass density [kg/m3]
Conditions | 293.15 K | 298.15 K | 303.15 K | 308.15 K
m1 = 0.01891 | 1000.62 ± 0.35 | 999.45 ± 0.35 | – | –
m1 = 0.01952 | – | – | 998.081 ± 0.35 | 996.399 ± 0.36
m1 = 0.03888 | – | – | 1000.47 ± 0.35 | 998.73 ± 0.35
m1 = 0.03922 | 1003.15 ± 0.36 | 1001.98 ± 0.35 | – | –
m1 = 0.05831 | – | – | 1002.85 ± 0.36 | 1001.06 ± 0.35
m1 = 0.05967 | 1005.7 ± 0.37 | 1004.5 ± 0.36 | – | –
m1 = 0.07995 | – | – | 1005.48 ± 0.37 | 1003.59 ± 0.36
m1 = 0.08039 | 1008.26 ± 0.38 | 1007.04 ± 0.38 | – | –
m1 = 0.1 | – | – | 1007.88 ± 0.38 | 1006.02 ± 0.37
m1 = 0.1008 | 1010.74 ± 0.39 | 1009.5 ± 0.39 | – | –
m1 = 0.1193 | – | – | 1010.19 ± 0.39 | 1008.28 ± 0.38
m1 = 0.1217 | 1013.28 ± 0.4 | 1011.99 ± 0.39 | – | –
